Measured values published in PMC9925730, “Controlled sequential in situ self-assembly and disassembly of a fluorogenic cisplatin prodrug for cancer theranostics” (Nature Communications, 2023).
“And” between values parts separate entries of the source, which are not always exact repeats. Equal values may be shown once.

Assays:
HeLa cells = assay: ICP-OES analysis of Pt in HeLa cells (uptake); format: cell-based; settings: for Amount of Pt / Total amount of Pt: Supplementary Table S1
Method: Supplementary Table 1. ICP-OES analysis of Pt in HeLa cells. a Pt drugs Pt element per cell Percentage of Pt element […]
a HeLa cells were untreated or pre-treated with Na3VO4 (10 mM) for 20 min and then incubated with indicated Pt drug (10 μM) for 1 h. Then, the cells were trypsinized, collected, and the cell numbers were counted and digested with trace metal concentrated HNO3 (65~70%) and HCl (36~38%). The amount of Pt element was determined by […]
b Pt per cell represents the average amount of Pt element in one HeLa cell, which was calculated by dividing the total amount of Pt element in cells by the cell number. c Percentage of Pt taken up by cells was calculated by dividing the total amount of Pt elements in cells by the amount of Pt drugs added. Values denote mean ± s.d. (n = 3 independent experiments). […]
The cell […]
lysates were separated according to a reported fragmentation procedure to obtained different cell fractions: pellet sample N (nuclei) was separated by 600 g for 10 min; pellet sample L (lysosomes and mitochondria) separated by 15000 g for 5 min; pellet sample M (plasma membrane) separated 100000g for 60 min and the remaining supernatant was soluble portion cytoplasm named as cell pellet C (cytosol) Pellets N, L, and M were all re-dispersed in 200 μL of D.I. water. Then, the solutions were collected and dropped on a carbon-coated copper grid, followed by freeze-drying respectively. The samples were then examined in a JEM-2800 Transmission Electron […]
Quantitative analysis of Pt in HeLa cells and different subcellular organelles. HeLa […]
cells were seeded in 10-cm dishes at a density of 4×10^6 cells/well and allowed to grow overnight. The cells were incubated with P-CyPt (10 μM), PtIVNPs (10 μM) and CDDP (10 μM) for 1 h, respectively. In P-CyPt + Na3VO4 group, HeLa cells were first incubated with Na3VO4 (10 mM) for 20 min, and then incubated with P-CyPt (10 μM) for another 60 min. After being washed with PBS for three times, the cells were trypsinized, centrifuged and counted. For Pt distribution analysis, the cells were treated with P-CyPt (10 μM) or CDDP (10 μM) for 1 h, and then washed with PBS for three times, followed by incubation with fresh medium for another 24 h. After that, cells were washed gently with 2 mL PBS once. The cells were trypsinized, centrifuged and counted. The cell lysates were separated according to a reported fragmentation procedure to obtained different cell fractions, including N (nuclei), M (plasma membrane), L (lysosomes and mitochondria) and C (cytosol). The Cells and different cell fractions were digested with concentrated HNO3 (65~70%) and HCl (36~38%) at 90 °C for 24 h. The solution was diluted to 5 mL 2% HNO3 and 5% HCl solution, and the concentration of Pt element was measured by ICP-OES, which was further applied to calculate the amount of Pt in cells and subcellular organelles.
Flow cytometry analysis of HeLa cell death. Approximately 2×10^5 cells/well HeLa cells in 2 mL DMEM medium were seeded onto 6-well plates and allowed to grow overnight. The medium was replaced with 1 mL of fresh medium containing P-CyPt (20 μM), PtIVNPs (20 μM) and CDDP (20 μM), respectively. After 2 h incubation, medium was removed and cells were washed with PBS for three times. Then, cells were incubated with fresh medium for another 48 h to induce different levels of apoptosis.
After gentle washing with PBS (×1), the cells were detached from the plates with trypsin (500 μL per well), and the cell pellets were collected after centrifugation at […] at 4 °C for 4 min. After washing with PBS, the pellets were re-suspended in 500 μL PBS buffer and stained with the annexin V-FITC/PI double staining apoptosis detection kit for flow cytometry. All assays were performed according to the manufacturer instructions, and the cell population was analyzed by annexin V-FITC and PI channels. The count number for each flow cytometry analysis was ~5000 to […]

[1] = Urine and faeces analysis by HPLC (mCy-containing compounds); format: in vivo; settings: Time period 8-12 h; individual mice

## CC1(C)C(/C=C/C2=C3Oc4cc(O)c(Cl)cc4C=C3CCC2)=[N+](CCCNC(=O)[C@@H](Cc2ccccc2)NC(=O)[C@@H](Cc2ccccc2)NC(=O)CCC(=O)[O][Pt]([NH2])([NH2])([OH])([Cl])[Cl])c2ccccc21 [CyPt]
HeLa cells; individual samples
  Amount of Pt: 1.96 fmol/cell and 1.6407 fmol/cell and 1.595 fmol/cell
  Total amount of Pt: 2.9% and 2.428% and 2.36%
HeLa cells; mean of 3 samples
  Amount of Pt: 1.7317 fmol/cell
  Total amount of Pt: 2.563%
[1]
  Compound found in excreta (%), Supplementary Table S5: 0%
  Compound found in excreta (%), Supplementary Table S6: 0.6127% and 0.8857% and 0.7667%
  Compound found in excreta (%), Supplementary Table S7: 0.79% and 1.63% and 1.075%

## CC1(C)C(/C=C/C2=C3Oc4cc(OP(=O)(O)O)c(Cl)cc4C=C3CCC2)=[N+](CCCNC(=O)[C@@H](Cc2ccccc2)NC(=O)[C@@H](Cc2ccccc2)NC(=O)CCC(=O)[O][Pt]([NH2])([NH2])([OH])([Cl])[Cl])c2ccccc21 [P-CyPt]
HeLa cells; HeLa cells, Pt drug 10 μM, 1 h, ICP-OES
  Pt element per cell: 24.60 ± 3.5 fmol/cell
HeLa cells; HeLa cells, Pt drug 10 μM, 1 h, of Pt drug added
  Percentage of Pt element taken up by cells: 36.9 ± 5.3%
HeLa cells; individual samples
  Amount of Pt: 20.8193 fmol/cell and 25.1404 fmol/cell and 27.8508 fmol/cell
  Total amount of Pt: 31.255% and 37.742% and 41.811%
HeLa cells; mean of 3 samples
  Amount of Pt: 24.6035 fmol/cell
  Total amount of Pt: 36.936%
[1]
  Compound found in excreta (%), Supplementary Table S5: 1.424% and 1.642% and 1.178%
  Compound found in excreta (%), Supplementary Table S6: 0.04756% and 0.06874% and 0.05951%
